From PubChem BioAssay AID328 (DTP/NCI, 2004) come the findings set out here.

“And” between values parts separate entries of the source, which are not always exact repeats. Equal entries are not always repeated. Inconclusive results and toxic doses are left out.

The subject of this assay is BDF1 mice, P388 leukemia ip, median survival T/C. Briefly: NCI In Vivo Anticancer Drug Screen. Data for tumor model P388 Leukemia (intraperitoneal) in B6D2F1 (BDF1) mice. The settings on record: endpoint: median survival time, higher = longer survival. In short, it runs like this: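 Transplantable tumour in mice; compound vs vehicle dosing; survival scored; ratio of treated to control reported.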

As for `CCCCN1CCCC(O)C1` (stereo not drawn), the T/C reads like this: (dose: 50.0 mg/kg/injection, schedule: Q01DX009 (ip), vehicle: saline) 100 % of control; (dose: 50.0 mg/kg/injection, schedule: Q04DX003 (ip), vehicle: saline with Tween-80) 105 % of control; (dose: 100.0 mg/kg/injection, schedule: Q01DX009 (ip), vehicle: saline) 100 % of control; (dose: 100.0 mg/kg/injection, schedule: Q04DX003 (ip), vehicle: saline with Tween-80) 110 % of control; (dose: 200.0 mg/kg/injection, schedule: Q04DX003 (ip), vehicle: saline with Tween-80) 100 % of control.
As to `COC(=O)C[C@](O)(CCC(C)(C)O)C(=O)O[C@@H]1C(OC)=C[C@]23CCCN2CCc2cc4c(cc2[C@H]13)OCO4`, the T/C runs as follows: (dose: 0.22 mg/kg/injection, schedule: Q01DX009 (ip), vehicle: saline) 190 % of control; (dose: 0.25 mg/kg/injection, schedule: Q01DX009 (ip), vehicle: saline) 172 % of control and 209 % of control and 215 % of control; (dose: 0.25 mg/kg/injection, schedule: Q03HX016 (ip), vehicle: saline) 163 % of control; (dose: 0.25 mg/kg/injection, schedule: Q03HX024 (ip), vehicle: saline) 177 % of control; (dose: 0.33 mg/kg/injection, schedule: Q01DX009 (ip), vehicle: saline) 204 % of control; (dose: 0.5 mg/kg/injection, schedule: Q01DX006 (iv), vehicle: saline) 110 % of control. The T/C was 261 % of control and 294 % of control (dose: 0.5 mg/kg/injection, schedule: Q01DX009 (ip), vehicle: water); 172 % of control (dose: 0.5 mg/kg/injection, schedule: Q03HX008 (ip), vehicle: saline); 163 % of control (dose: 0.5 mg/kg/injection, schedule: Q03HX016 (ip), vehicle: saline); 236 % of control (dose: 0.5 mg/kg/injection, schedule: Q03HX024 (ip), vehicle: saline); 350 % of control and 405 % of control (dose: 1.0 mg/kg/injection, schedule: Q01DX009 (ip), vehicle: water); 165 % of control (dose: 1.0 mg/kg/injection, schedule: Q01DX009 (sc), vehicle: saline). Besides, the T/C is, setting by setting: (dose: 1.0 mg/kg/injection, schedule: Q01DX010 (oral), vehicle: saline) 115 % of control; (dose: 1.0 mg/kg/injection, schedule: Q03HX016 (ip), vehicle: saline) 109 % of control; (dose: 1.0 mg/kg/injection, schedule: Q03HX024 (ip), vehicle: saline) 100 % of control; (dose: 2.0 mg/kg/injection, schedule: Q01DX006 (iv), vehicle: saline) 205 % of control; (dose: 2.0 mg/kg/injection, schedule: Q01DX009 (ip), vehicle: water) 205 % of control; (dose: 2.0 mg/kg/injection, schedule: Q01DX009 (oral), vehicle: saline) 210 % of control. The T/C is 215 % of control (dose: 2.0 mg/kg/injection, schedule: Q01DX009 (sc), vehicle: saline); 160 % of control (dose: 2.0 mg/kg/injection, schedule: Q01DX010 (oral), vehicle: saline); 235 % of control (dose: 2.0 mg/kg/injection, schedule: Q01DX010 (sc), vehicle: saline); 154 % of control (dose: 2.0 mg/kg/injection, schedule: Q04DX003 (ip), vehicle: saline); 150 % of control (dose: 4.0 mg/kg/injection, schedule: Q01DX009 (ip), vehicle: saline); 100 % of control (dose: 4.0 mg/kg/injection, schedule: Q01DX010 (sc), vehicle: saline). Also, the T/C reads like this: (dose: 8.0 mg/kg/injection, schedule: Q01DX001 (ip), vehicle: saline) 118 % of control; (dose: 8.0 mg/kg/injection, schedule: Q01DX010 (oral), vehicle: saline) 90 % of control; (dose: 8.0 mg/kg/injection, schedule: Q04DX003 (ip), vehicle: saline) 104 % of control; (dose: 8.0 mg/kg/injection, schedule: Q08DX002 (ip), vehicle: saline) 100 % of control.
